Measurements from patent publication US20080140036A1, “Antimicrobial Composition” (priority 2004, published 2008).

How the values were obtained:
[1] = system: EMRSA j95 922 phage group 3; assay: ZOI of triclosan vapours (vapour phase)
[2] = system: EMRSA m97 271 032 phage group 10; assay: MIC of triclosan (direct contact)
[3] = system: all strains of staphylococci; assay: MIC of triclosan (direct contact), all strains; assay type: cell-based
[4] = system: Strain T1 MSSA; assay: ZOI of triclosan vapours (vapour phase); assay type: cell-based, S. aureus
[5] = system: EMRSA g96 139 515 phage group 15; assay: ZOI of triclosan vapours (vapour phase)
[6] = system: EMRSA m97 271 064 phage group 14; assay: ZOI of triclosan vapours (vapour phase)
[7] = system: MRSA 16; assay: ZOI of triclosan vapours (vapour phase)
[8] = system: all staphylococcal strains; assay: Vapours of triclosan, all strains; assay type: cell-based, Staphylococcus; conditions: vapour phase
[9] = system: S. epidermidis NCTC 11047; assay: ZOI of triclosan vapours (vapour phase); assay type: cell-based
[10] = system: S. epidermidis NCTC 7944; assay: ZOI of triclosan vapours (vapour phase); assay type: cell-based
[11] = system: EMRSA m97 271 032 phage group 10; assay: ZOI of triclosan vapours (vapour phase)
[12] = system: EMRSA m97 271 031 phage group 1; assay: ZOI of triclosan vapours (vapour phase)

Oc1cc(Cl)ccc1Oc1ccc(Cl)cc1Cl [triclosan]
ZOI Average ([1]; average): 54 mm
ZOI 1 ([1]; replicate 1): 55 mm
ZOI 2 ([1]; replicate 2): 53 mm
MIC [2]: 0.5 Mg ml^−1−
concentration able to inhibit all strains of staphylococci [3]: 2 µg/mL
ZOI Average ([4]; average): 45.5 mm
ZOI 1 ([4]; replicate 1): 46 mm
ZOI 2 ([4]; replicate 2): 45 mm
ZOI Average ([5]; average): 47 mm
ZOI 1 ([5]; replicate 1): 47 mm
ZOI 2 ([5]; replicate 2): 47 mm
ZOI Average ([6]; average): 35 mm
ZOI 1 ([6]; replicate 1): 35 mm
ZOI 2 ([6]; replicate 2): 35 mm
ZOI Average ([7]; average): 55.5 mm
ZOI 1 ([7]; replicate 1): 55 mm
ZOI 2 ([7]; replicate 2): 56 mm
effect of vapours on growth [8]: effective at inhibiting growth of all staphylococcal strains
ZOI Average ([9]; average): 50.5 mm
ZOI 1 ([9]; replicate 1): 50 mm
ZOI 2 ([9]; replicate 2): 51 mm
ZOI Average ([10]; average): 50.5 mm
ZOI 1 ([10]; replicate 1): 50 mm
ZOI 2 ([10]; replicate 2): 51 mm
ZOI Average ([11]; average): 49 mm
ZOI 1 ([11]; replicate 1): 49 mm
ZOI 2 ([11]; replicate 2): 49 mm
ZOI Average ([12]; average): 41 mm
ZOI 1 ([12]; replicate 1): 42 mm
ZOI 2 ([12]; replicate 2): 40 mm
